Values of other authors, collected in patent publication US7994139B2, “Antiviral therapeutic agents” (BioCryst Pharmaceuticals, Inc., priority 2008, dated 2011).

Test system: HCV

NC(=O)c1ncn([C@@H]2O[C@H](CO)[C@@H](O)[C@H]2O)n1 [Ribavirin, 1-β-D-ribofuranosyl-1-1,2,4-triazole-3-carboxamide]
serum levels of HCV-RNA (patients, used as sole treatment): does not lower serum levels of HCV-RNA
patients in whom serum amino transferase levels are reduced to normal (ribavirin alone): 40%
